Assay results published in patent US11667638B2, “4-substitued cytisine analogues” (The University of Bristol, priority 2016, dated 2023).
Like-named read-outs stand apart in the source and are kept apart here.

Tests used:
(α4)3(β2)2 nAChRs = (α4)3(β2)2 nAChRs (Homo sapiens (Human), UniProt P17787+P43681); test: Maximal gating efficacy on (α4)3(β2)2 nAChRs in Xenopus oocytes, two electrode voltage clamp; assay type: cell-based
Experimental: (§1) Compounds of the invention were tested for effects on the function of human α4β2, α3β4 and α7 nicotinic acetylcholine receptors (nAChRs) expressed heterologously in Xenopus oocytes. […] Expression in oocytes was obtained as follows: pCI (Promega, UK) plasmid containing human α4, β2, β4 or α7 complementary DNA were injected as previously described (Moroni et al., 2006). To express (α4)3(β2)2 nACh receptors, a mixture of 10α4:1β2 cDNAs was injected into the nucleus of oocytes, whereas for (α4)2(β2)3 receptors the cDNA ratio injected was 1α4:10β2.
(§2) Functional studies: Recordings were performed manually using a Geneclamp amplifier (Molecular Devices, USA) or using an automated HiClamp system. In both cases the oocytes were impaled with two electrodes filled with 3 M KCl and the cells were held at −60 mV throughout the experiments.
(§3) Oocyte isolation and two-electrode voltage-clamp recordings on oocytes were carried out as previously described (Moroni et al., 2006; Carbone et al., 2009). […] A minimum interval of 5 min was allowed between agonist applications to ensure reproducible recordings. Oocytes were exposed to increasing concentrations of the compounds until no further increases in the response amplitude were obtained. This concentration was taken as the concentration that causes maximal responses on the receptors tested. The data summarised in Tables 1-4 were obtained from at least 5 experiments carried out on oocytes obtained from at least three different donors.
Maximal gating efficacy of the compounds: The concentration of the compounds of the invention causing maximal activation of the (α4)3(β2)2 nAChRs expressed heterologously in Xenopus oocytes was determined using two electrode voltage clamping.

α3β4 nAChRs = α3β4 nAChRs (Homo sapiens (Human), UniProt P30926+P32297); test: Maximal gating efficacy on α3β4 nAChRs in Xenopus oocytes, two electrode voltage clamp; assay type: cell-based; conditions: maximal current relative to 1 mM ACh
Chain of α3β4 nAChRs (P32297 32-505): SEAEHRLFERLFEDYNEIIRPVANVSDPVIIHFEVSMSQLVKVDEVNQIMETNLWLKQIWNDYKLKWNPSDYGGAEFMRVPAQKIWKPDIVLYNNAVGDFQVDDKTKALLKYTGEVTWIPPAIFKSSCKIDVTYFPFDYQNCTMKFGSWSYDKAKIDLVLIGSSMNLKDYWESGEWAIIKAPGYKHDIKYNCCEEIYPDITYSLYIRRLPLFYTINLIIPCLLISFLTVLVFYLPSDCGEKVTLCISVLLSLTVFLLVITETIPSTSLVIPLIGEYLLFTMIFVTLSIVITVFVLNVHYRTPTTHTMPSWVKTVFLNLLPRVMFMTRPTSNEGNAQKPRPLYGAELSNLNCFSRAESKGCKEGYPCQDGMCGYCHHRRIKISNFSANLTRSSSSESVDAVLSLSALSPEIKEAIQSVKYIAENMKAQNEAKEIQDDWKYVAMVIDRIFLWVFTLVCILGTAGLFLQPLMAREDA
Chain of α3β4 nAChRs (P30926 22-498): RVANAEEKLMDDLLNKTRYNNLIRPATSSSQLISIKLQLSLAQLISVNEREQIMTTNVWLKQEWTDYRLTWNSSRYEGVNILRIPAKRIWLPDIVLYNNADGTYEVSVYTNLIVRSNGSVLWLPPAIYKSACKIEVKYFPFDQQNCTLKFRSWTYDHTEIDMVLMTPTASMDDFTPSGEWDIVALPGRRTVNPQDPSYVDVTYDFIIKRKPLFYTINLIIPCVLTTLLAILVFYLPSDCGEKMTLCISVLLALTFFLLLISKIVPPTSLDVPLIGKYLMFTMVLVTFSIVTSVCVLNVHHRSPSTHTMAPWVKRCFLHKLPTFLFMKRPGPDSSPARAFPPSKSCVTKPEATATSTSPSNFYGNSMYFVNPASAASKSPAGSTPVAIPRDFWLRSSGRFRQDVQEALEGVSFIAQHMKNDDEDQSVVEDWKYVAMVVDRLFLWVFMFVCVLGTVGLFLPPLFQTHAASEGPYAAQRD
Experimental: as §1, §2, §3
Maximal gating efficacy of the compounds on α3β4 nAChRs: The concentration of the compounds causing maximal activation of α3β4 nAChRs expressed heterologously in Xenopus oocytes was determined using two electrode voltage clamping.

(α4)2(β2)3 nAChRs = (α4)2(β2)3 nAChRs (Homo sapiens (Human), UniProt P17787+P43681); test: Maximal gating efficacy on (α4)2(β2)3 nAChRs in Xenopus oocytes, two electrode voltage clamp; assay type: cell-based
Chain of (α4)2(β2)3 nAChRs (P43681 29-627): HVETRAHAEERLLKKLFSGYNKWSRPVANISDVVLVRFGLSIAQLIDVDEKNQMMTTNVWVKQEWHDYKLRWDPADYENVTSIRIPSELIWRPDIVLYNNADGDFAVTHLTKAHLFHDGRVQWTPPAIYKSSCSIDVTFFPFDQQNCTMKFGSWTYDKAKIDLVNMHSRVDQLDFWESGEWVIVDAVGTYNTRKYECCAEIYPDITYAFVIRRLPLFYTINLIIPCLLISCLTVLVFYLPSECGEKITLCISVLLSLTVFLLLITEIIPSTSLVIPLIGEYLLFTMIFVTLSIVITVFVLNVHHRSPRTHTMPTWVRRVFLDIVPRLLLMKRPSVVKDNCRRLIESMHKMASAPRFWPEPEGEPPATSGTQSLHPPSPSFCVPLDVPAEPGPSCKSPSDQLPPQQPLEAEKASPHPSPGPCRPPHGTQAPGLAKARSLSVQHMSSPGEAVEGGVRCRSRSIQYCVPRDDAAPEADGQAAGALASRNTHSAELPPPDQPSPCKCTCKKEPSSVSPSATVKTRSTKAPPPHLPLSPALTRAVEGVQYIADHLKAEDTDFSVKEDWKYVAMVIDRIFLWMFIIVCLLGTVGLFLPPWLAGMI
Chain of (α4)2(β2)3 nAChRs (P17787 26-502): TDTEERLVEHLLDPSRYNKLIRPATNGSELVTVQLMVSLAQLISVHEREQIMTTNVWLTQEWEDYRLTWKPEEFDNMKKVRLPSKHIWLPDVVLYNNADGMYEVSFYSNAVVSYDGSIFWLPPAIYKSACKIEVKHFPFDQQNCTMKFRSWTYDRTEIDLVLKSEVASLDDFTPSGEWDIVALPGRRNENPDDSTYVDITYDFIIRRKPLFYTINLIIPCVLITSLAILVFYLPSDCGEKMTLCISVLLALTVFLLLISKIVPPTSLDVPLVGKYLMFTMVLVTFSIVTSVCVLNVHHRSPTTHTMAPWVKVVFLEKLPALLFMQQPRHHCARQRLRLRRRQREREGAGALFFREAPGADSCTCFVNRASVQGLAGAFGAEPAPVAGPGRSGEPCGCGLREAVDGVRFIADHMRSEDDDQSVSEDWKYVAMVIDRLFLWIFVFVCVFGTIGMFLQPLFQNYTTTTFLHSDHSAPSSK
Experimental: as §1, §2, §3
Maximal gating efficacy of compounds on (α4)2(β2)3 receptors (high sensitivity receptors): The concentration of the compounds causing maximal activation of the (α4)2(β2)3 nAChRs expressed heterologously in Xenopus oocytes was determined using two electrode voltage clamping.

α7 nAChRs = α7 nAChRs (Homo sapiens (Human), UniProt P36544); assay type: cell-based; conditions: compounds at 100 μM, relative to 1 mM ACh
Chain of α7 nAChRs (P36544 23-502): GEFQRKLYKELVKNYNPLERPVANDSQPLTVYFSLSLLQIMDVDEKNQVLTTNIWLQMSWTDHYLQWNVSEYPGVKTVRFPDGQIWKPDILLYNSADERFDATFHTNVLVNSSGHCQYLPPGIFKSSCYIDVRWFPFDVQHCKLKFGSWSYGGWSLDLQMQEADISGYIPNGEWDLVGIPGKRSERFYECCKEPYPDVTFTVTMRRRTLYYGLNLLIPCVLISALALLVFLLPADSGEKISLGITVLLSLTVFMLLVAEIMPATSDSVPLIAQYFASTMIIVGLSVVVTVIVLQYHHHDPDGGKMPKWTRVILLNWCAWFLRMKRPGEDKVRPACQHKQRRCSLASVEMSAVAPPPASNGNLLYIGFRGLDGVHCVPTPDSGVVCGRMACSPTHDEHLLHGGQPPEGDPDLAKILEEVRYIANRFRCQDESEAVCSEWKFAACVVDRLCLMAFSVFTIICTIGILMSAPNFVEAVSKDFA
Experimental: as §1, §2, §3

α4β2 nAChR = α4β2 nAChR (Homo sapiens (Human), UniProt P17787+P43681); assay type: binding; conditions: ratio of Ki values
Chain of α4β2 nAChR (P43681 29-627 limits assumed): as the sequence (P43681 29-627) above
Chain of α4β2 nAChR (P17787 26-502 limits assumed): as the sequence (P17787 26-502) above
Experimental: HEK 293 cells were grown in Dulbecco's modified Eagle medium supplemented with 10% fetal bovine serum, 1% L-Glutamine, 100 units/ml penicillin G, and 100 μg/streptomycin in a humidified atmosphere containing 10% CO2. The cDNAs encoding α3 and β4 or α4 and β2 (were transfected into the HEK 293 cells at 30% confluency). The cell transfections were carried out in 100 mm Petri dishes using 30 μL of JetPEI™ (Polypus, France) (1 mg/ml, pH 7.2) and 3 μg of each cDNA. After 24 h transfection, the cells were collected, washed with PBS by centrifugation, and used for binding analysis.
[^3H]-epibatidine saturation binding experiments to HEK transfected α3β4 or α4β2 receptors were performed by means of overnight incubation at 4° C. at concentrations ranging from 0.005 to 1 nM in a buffer containing 50 mM Tris-HCl, pH 7, 150 mM NaCl, 5 mM KCl, 1 mM MgCl2, 2.5 mM CaCl2 and 2 mg/ml BSA, in the presence (aspecific binding) or absence (total binding) of 100 nM cold epibatidine. Specific ligand binding was defined as total binding minus the binding in the presence of 100 nM cold epibatidine.
After incubation, the membranes of HEK cells transfected with α4β2* or α3β4 subtypes were washed by filtration on GFC filters with ice-cold PBS. The GFC filters were pre-soaked in polyethylenimine and filtered through an harvester apparatus. [^3H]-epibatidine binding was determined by means of liquid scintillation counting in a beta counter.
The ligand binding data were analyzed by means of nonlinear regression using Prism version 5 (GraphPad Software, Inc., La Jolla, Calif.). The Ki values were calculated from the experimental IC50 values using the Cheng-Prusoff equation for a single population of competitive sites: Ki=IC50/[1+(L/Kd)], where L is the concentration of radioligand used in each experiment and the Kd values were determined by saturation binding experiment. All of the assays were performed in duplicate and repeated at least two-three times.

[1] = (α4)3(β2)2, low sensitivity stoichiometry, maximal current relative to 1 mM ACh
[2] = (α4)2(β2)3, high sensitivity receptors, maximal current relative to 1 mM ACh

Chain of (α4)3(β2)2 nAChRs (P43681 29-627): as the sequence (P43681 29-627) above
Chain of (α4)3(β2)2 nAChRs (P17787 26-502): as the sequence (P17787 26-502) above

SMILES	Relative efficacy (ACh) ((α4)3(β2)2 nAChRs; [1])	Relative efficacy (ACh) (α3β4 nAChRs)	Relative efficacy (ACh) ((α4)2(β2)3 nAChRs; [2])	Relative efficacy (ACh) (α7 nAChRs)	Ratio α3β4/α4β2 (α4β2 nAChR)	Relative efficacy (ACh) ((α4)3(β2)2 nAChRs)	Relative efficacy (ACh) ((α4)2(β2)3 nAChRs)
c1cnc2cc3c(cc2n1)[C@@H]1CNC[C@H]3C1 [Varenicline, reference compound]	0.40 ± 0.09	0.51 ± 0.09	0.14 ± 0.03	0.96 ± 0.03	–	–	–
O=c1cc(Br)cc2n1CC1CNC[C@@H]2C1 (single isomer, unassigned; (-)) [Compound 62, (−)4-Bromocytisine]	0.057 ± 0.007	0.184 ± 0.046	0.009 ± 0.0001	0.28 ± 0.01	303.4	–	–
Cc1cc2n(c(=O)c1)CC1CNC[C@@H]2C1.Cl (single isomer, unassigned; (-)) [Compound 110, (−)4-Methylcytisine]	0.014 ± 0.007	0.0708 ± 0.059	0.041 ± 0.004	0.0017 ± 0.0024	864.3	–	–
CC(=O)Nc1cc2n(c(=O)c1)CC1CNC[C@@H]2C1.Cl (single isomer, unassigned; (+)) [Compound 94, (+)4-(N-acetylamino)cytisine]	0.153 ± 0.006	0.055 ± 0.047	0.001 ± 0.0006	0.0001 ± 0.00001	751.0	–	–
Cl.O=c1cc(CO)cc2n1CC1CNC[C@@H]2C1 (single isomer, unassigned; (-)) [Compound 122, (−)4-(Hydroxymethyl)cytisine]	0.058 ± 0.057	0.015 ± 0.020	0.025 ± 0.000	0.0067 ± 0.0015	73.0	–	–
COc1cc2n(c(=O)c1)CC1CNC[C@@H]2C1 (single isomer, unassigned; (-)) [Compound 69, (−)4-Methoxycytisine]	0.071 ± 0.009	0.044 ± 0.059	0.009 ± 0.0008	0.061 ± 0.09	206.1	–	–
C#Cc1cc2n(c(=O)c1)CC1CNC[C@@H]2C1.Cl (single isomer, unassigned; (-)) [Compound 127, (−)4-(acetylenyl)cytisine]	0.071 ± 0.009	0.165 ± 0.064	0.009 ± 0.0009	0.17 ± 0.03	710.5	–	–
CN(Cc1cc2n(c(=O)c1)CC1CNC[C@@H]2C1)Cc1cc2n(c(=O)c1)CC1CNC[C@@H]2C1 (stereo in doubt) [Compound 156, Methylamino bis(cytisine) derivative]	0.052 ± 0.007	0.012 ± 0.007	No response	–	207.3	–	–
O=c1cc(O)cc2n1CC1CNC[C@@H]2C1 (single isomer, unassigned; (+)) [Compound 67, (+)4-Hydroxycytisine]	0.07 ± 0.009	0.047 ± 0.036	0.005 ± 0.0001	No response at 100 μM	397.8	–	–
Nc1cc2n(c(=O)c1)CC1CNC[C@@H]2C1 (single isomer, unassigned; (+)) [Compound 81, (+)4-aminocytisine]	0.007 ± 0.01061	0.0210 ± 0.008	0.024 ± 0.034	–	1561.0	–	–
O=c1cc(Cl)cc2n1CC1CNC[C@@H]2C1 (single isomer, unassigned; (-)) [Compound 60, (−)4-Chlorocytisine]	0.110 ± 0.08	0.133 ± 0.017	0.01 ± 0.007	0.38 ± 0.09	328.6	–	–
COC(=O)c1cc2n(c(=O)c1)CC1CNC[C@@H]2C1 (single isomer, unassigned; (-)) [Compound 119, (−)4-carboxymethycytisine]	0.021 ± 0.007	0.040 ± 0.049	0.0065 ± 0.0005	–	366.5	–	–
CCc1cc2n(c(=O)c1)CC1CNC[C@@H]2C1.Cl (single isomer, unassigned; (-)) [Compound 118, (−)4-Ethylcytisine]	0.036 ± 0.055	0.086 ± 0.106	0.062 ± 0.025	0.0057 ± 0.0028	1901.3	–	–
Cl.O=c1c(C(F)(F)F)c(Br)cc2n1CC1CNC[C@@H]2C1 (single isomer, unassigned; (-)) [Compound 162, (−)3-(Trifluoromethyl)-4-bromocytisine]	0.072 ± 0.026	0.250 ± 0.077	0.042 ± 0.060	–	136.4	–	–
Cl.O=c1cc(-c2c(F)c(F)c(F)c(F)c2F)cc2n1CC1CNC[C@@H]2C1 (single isomer, unassigned; (-)) [Compound 75, (−)4-(Perfluorophenyl)cytisine]	0.011 ± 0.010	0.120 ± 0.039	0.050 ± 0.071	0.0007 ± 0.0006	8.1	–	–
O=c1cc(-c2ccncc2)cc2n1CC1CNC[C@@H]2C1 (single isomer, unassigned; (-)) [Compound 103, (−)4-(4-Pyridinyl)cytisine]	0.023 ± 0.006	0.016 ± 0.010	0.0067 ± 0.0006	0.07 ± 0.009	859.6	–	–
O=c1cc(-c2ccccn2)cc2n1CC1CNC[C@@H]2C1 (single isomer, unassigned; (-)) [Compound 101, (−)4-(2-Pyridinyl)cytisine]	0.009 ± 0.008	0.066 ± 0.056	0.0001 ± 0.00008	0.16 ± 0.03	1575.0	–	–
Cc1ccc(-c2cc3n(c(=O)c2)CC2CNC[C@@H]3C2)cc1 (single isomer, unassigned; (+)) [Compound 73, (+)4-p-Tolylcytisine]	–	0.076 ± 0.093	–	0.0027 ± 0.0021	161.7	0.017 ± 0.019	0.030 ± 0.013
